Reference: US3954793A, “1-(2-Propynyl)-1 H-indazole compounds” (priority 1973, dated 1976)

How the values were obtained:
[1] = test system: IN/WHO strain house flies; experiment: topical application, percent kill after 24 hours, susceptible IN/WHO strain; type: in vivo, female); settings: for percent kill after 24 hours, synergist alone (GS 13005 part of Table XXXI): GS 13005 0, synergist 1 μg/fly; for percent kill after 24 hours, synergist alone: insecticide 0, synergist 1 μg/fly; for percent kill after 24 hours, with Diazinon: Diazinon 0.03 + synergist 0.15 μg/fly
Outline: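 Insecticide plus synergist in acetone, 1.0 μl applied to the thorax of CO2-anesthetized 3-to-5-day-old female IN/WHO house flies, doses in μg/fly. Flies held 10 per dish, 3-5 dishes per treatment, with skim milk. Percent mortality scored after 24 h.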

[2] = test system: German male cockroaches (Blatella Germanicus); experiment: topical application to thorax, 24 hour mortality of German male cockroaches; type: in vivo; settings: for percent insect mortality, synergist alone (mobam test doses): synergist doses of Table XXXX; for percent insect mortality, synergist alone (mobam test doses) / percent insect mortality, synergist alone (GS 13005 test doses): no insecticide; for percent insect mortality, synergist alone (GS 13005 test doses): synergist doses of Table XXXXI
Protocol: The synergistic effect with mobam of synergist compounds I-B, II-H, II-K and IV-C is further illustrated by the 24 hour mortality data of German male cockroaches (Blatella Germanicus) shown in Table XXXX. The synergists and insecticide were diluted in acetone and applied in small droplets to the thorax of the insect. These doses of synergist alone gave zero percent insect mortality.
The synergistic effect with GS 13005 of compounds I-B, II-H, II-K, II-P, II-Q, II-R and IV-C is illustrated by the 24 hour mortality of German male cockroaches shown in Table XXXXI. These doses of synergist alone caused zero percent insect mortality.

[3] = test system: Wilson strain house flies; type: in vivo, Wilson strain (susceptible); settings: for Contact Synergistic Ratio, Pyrolan: LC50 pyrolan alone / LC50 with synergist, synergist to insecticide 5:1 by weight; for Contact Synergistic Ratio, Carbaryl: in vivo
Outline: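 Wilson strain house flies held at room temperature in glass jars coated with acetone-deposited insecticide film, alone or with synergist at 5:1 synergist:insecticide by weight.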

[4] = GS 13005 0.10 + synergist 0.50 μg/fly
[5] = Mobam 0.20 + synergist 1 μg/fly
[6] = GS 13005 dose 0.08 + synergist 0.40, pretreated with synergist two hours before insecticide
[7] = Mobam dose 0.12 + synergist 0.60, pretreated with synergist two hours before insecticide
[8] = GS 13005 0.05 + synergist 0.25 μg/fly
[9] = GS 13005 0.10 + synergist 0.125 μg/fly
[10] = GS 13005 0.10 + synergist 0.25 μg/fly
[11] = GS 13005 dose 0.08 + synergist 4.0, cockroaches
[12] = Mobam 0.20 + synergist 0.25 μg/fly
[13] = Mobam 0.20 + synergist 0.50 μg/fly
[14] = Mobam dose 0.16 + synergist 0.80, cockroaches

| Compound | percent kill after 24 hours, synergist alone (GS 13005 part of Table XXXI) [1] | percent kill after 24 hours, with GS 13005 [1, 4] | percent kill after 24 hours, with Mobam [1, 5] | percent kill after 24 hours, synergist alone [1] | 24 hour mortality, with GS 13005 [2, 6] | 24 hour mortality, with Mobam [2, 7] | percent insect mortality, synergist alone (mobam test doses) [2] | percent insect mortality, synergist alone (GS 13005 test doses) [2] | Contact Synergistic Ratio, Pyrolan [3] | Contact Synergistic Ratio, Carbaryl [3] | percent kill after 24 hours, with Diazinon [1] | percent kill after 24 hours, with GS 13005 [1, 8] | percent kill after 24 hours, with GS 13005 [1, 9] | percent kill after 24 hours, with GS 13005 [1, 10] | 24 hour mortality, with GS 13005 [2, 11] | percent kill after 24 hours, with Mobam ([1]; Mobam 0.05 + synergist 0.25 μg/fly) | percent kill after 24 hours, with Mobam ([1]; Mobam 0.10 + synergist 0.50 μg/fly) | percent kill after 24 hours, with Mobam [1, 12] | percent kill after 24 hours, with Mobam [1, 13] | 24 hour mortality, with Mobam [2, 14] |
| --- | --- | --- | --- | --- | --- | --- | --- | --- | --- | --- | --- | --- | --- | --- | --- | --- | --- | --- | --- | --- |
| C#CCOCc1c(Cl)cccc1Cl [II-H] | 10% | 100% | 100% | 10% | 100% | 90% | zero | zero | 40 | 300 |  |  |  |  |  |  |  |  |  |  |
| C#CCOCc1ccccc1[N+](=O)[O-] [II-P, 2-nitrobenzyl 2-propynyl ether] | 0% | 96% |  | 0% | 90% |  |  | zero |  |  | 30% | 10% | 69% | 85% | 60% |  |  |  |  |  |
| C#CCOCc1cccc2ccccc12 [II-R, α-napthylmethyl 2-propynyl ether] | 0% | 68% |  | 0% | 100% |  |  | zero |  |  | 22% |  | 49% | 65% |  |  |  |  |  |  |
| C#CCON=Cc1cccc([N+](=O)[O-])c1 [I-B] |  | 73% | 73% | 0% | 95% | 80% | zero | zero | 35 | 270 | 22% | 2% | 13% | 27% | 40% | 0% | 0% | 13% | 30% | 50% |
| C#CCOCc1ccc([N+](=O)[O-])cc1 [II-Q, 4-nitrobenzyl 2-propynyl ether] | 0% | 90% |  |  | 95% |  |  | zero |  |  |  | 25% | 43% | 67% |  |  |  |  |  |  |
| C#CCOC(c1ccc(Cl)cc1)C(C)[N+](=O)[O-] (stereo not drawn) [IV-C] |  | 89% | 64% | 0% | 90% | 60% | zero | zero |  |  | 29% | 9% | 63% | 75% | 30% |  |  | 39% | 60% | 40% |
